In patent US5856535A, “Aminosterol ester compounds” (priority 1996, dated 1999):
≈ marks a conversion by molar mass, not a printed value. Like-named read-outs stand apart in the source and are kept apart here.

Columns and labels:
[1] = tested on: red blood cells; assay: swelling of red blood cells; assay type: cell-based
[2] = tested on: splenocytes; assay: mitogen proliferation assay (splenocytes of treated mice, Con A); assay type: in vivo; settings: for potency in the mitogen proliferation assay (in words): mouse, in vivo; for Rel. potency to MSI-1436, Mitogen Proliferation Assay: 10 mg/kg iv
Experimental: For the attached Tables, the mitogen proliferation assay was performed by treating mice (male or female) with various amounts of the aminosterol test compounds. Some time later (typically between 2 hours and 14 days), the mice are sacrificed and their spleens removed. Splenocytes are harvested and cultured in the presence of between 1-10 μg/ml of Con A (Sigma) for 48 hours. See James Morgan, "Monoclonal Antibody Production," Modern Methods in Pharmacology, pp. 29-67, eds., Spector and Back, 1988. This excerpt is entirely incorporated herein by reference. Cell proliferation is monitored either by direct cell counting or by measurement of the incorporation of radioactive thymidine.

[3] = tested on: S. aureus; assay: antibiotic activity, S. aureus; assay type: cell-based; settings: Staphylococcus aureus
[4] = tested on: P. aerug; assay: antibiotic activity, P. aerug; assay type: cell-based
[5] = tested on: E. Coli; assay: antibiotic activity, E. Coli; assay type: cell-based; settings: Escherichia coli
[6] = tested on: C. albicans; assay: antibiotic activity, C. albicans; assay type: cell-based; settings: Candida albicans
[7] = tested on: human microvascular cells; assay: endothelial cell cord formation assay (human microvascular cells, VEGF and bFGF, collagen matrix); assay type: cell-based; settings: for minimal effective concentration: Homo sapiens, Endothelial cell; for inhibition of angiogenesis (in words): higher doses
From the text: Endothelial cells have the capacity in vitro to form tubular aggregates resembling capillaries in various early stages of formation. This conversion occurs under relatively specific conditions, in which essential growth factors along with an effective substratum are provided. It has been shown that both the interaction of growth factors with the endothelial cell and its attachment to a substratum activate the NHE. The activation of this exchanger is believed to be required for subsequent morphologic transformation of the endothelial cell into a multicellular tubular structure.
To assess the effect of compounds on the cord-like structures formed by human microvascular cells when plated in the presence of VEGF (Vascular Endothelial Growth Factor) and basic fibroblast growth factor on a collagen matrix, a standard cord formation assay was performed using the method described by Goto, et al., "Synergistic Effects of Vascular Endothelial Growth Factor and Basic Fibroblast Growth Factor on the Proliferation and Cord Formation of Bovine Capillary Endothelial Cells Within Collagen Gels," Laboratory Investigation, Vol. 69, No. 5, 1993, pp. 508-517. This article is entirely incorporated herein by reference.

[8] = tested on: melanoma cells; assay: MTT assay for cell number; assay type: cell-based; settings: for minimal effective concentration: 48 h, Table II, read-out: Minimum Effective Concentration, MTT assay
Experimental: In Table V, several aminosterol esters show efficacy in killing melanoma cells in the MTT assay.
(§1) The MTT assay for cell number is performed as follows. Cells are counted on a hemocytometer and diluted to a concentration of approx. 10,000 cells/well (55,000 cells/ml×0.18 ml). Cells are then plated in a 96 well microtiter plate and allowed to attach overnight. The next day, compounds are serially diluted from 1000 to 15.6 μg/ml and run in duplicate. 20 μl of each dilution are transferred to the pre-seeded microtiter plates. The final concentrations are 100 to 1.56 μg/ml. The plates are then incubated for 48 hours at 37° C. in 5% CO2. After 48 hours, MTT solution is added. The plate is re-incubated for 4 hours. Readings are done by removing all but 30 μl of media and MTT solution and dissolving the formazan crystals with DMSO. The formazan is dissolved by mixing on a rotating plate at low speed for about 30 minutes. Absorbance of converted dye is measured at a wavelength of 560 nm with background subtraction at 630 nm. The percent survival is determined by a comparison between the mean absorbance of the duplicate test lanes and the growth control.

[9] = tested on: LLC; assay: LLC MTT; assay type: cell-based; settings: Lewis lung carcinoma, 48 h; Table II; read-out: Minimum Effective Concentration, LLC MTT
Experimental: as §1

[10] = in vitro; settings: human, pbmc
[11] = tested on: HIV; assay: inhibition of HIV replication in vitro (HIV Inhib.); assay type: cell-based; settings: for inhibition at 0.14 µM: Human immunodeficiency virus 1, read-out: % Inhib of HIV
[12] = inhibition of MSI-1436 binding; settings: 3H-MSI-1436 at 20 μg/mL
[13] = tested on: chick embryo vitelline capillaries; assay: chick embryo vitelline capillary regression assay; assay type: in vivo; parameters: key to Chick embryo vitelline capillary regression: +: Vascular reactivity; 0: No vascular reactivity; +/-: Equivocal reactivity
Experimental: Using the chick embryo vitelline capillaries assay, various aminosterol compounds were tested for their ability to induce capillary regression. Each compound was applied in 0.1 ml of 15% Ficol 400 and PBS onto the embryo, and vascular regression was assessed after 60 minutes. These tests were conducted by the chorioallantoic membrane anti-angiogenesis assay by applying the material to be assayed to 3 day old fertilized chick embryos in the manner described by Wilks et al., "Inhibition of Angiogenesis With Combination Angiostatic Steroids and Suramin," Radiation Biology, Vol. 60, Nos. 1/2, 1991, pp. 73-77, which article is entirely incorporated herein by reference.
The 3-day chick embryo consists of an embryonic disc from which numerous vessels emerge and return, forming a "figure 8"-shaped structure--the embryo in the center with vascular loops extending outward over both poles. […] Following a lag period of around 15 minutes, the constriction of continuity between capillary and secondary vessels, generally on the "venous" side, was observed. Continued pulsatile blood flow progressed, resulting in a "swelling" of the blind tube, followed by a pinching off of the remaining connection and formation of an enclosed vascular sac resembling a "blood island." This process progressed until only the largest vessels remained intact.

[14] = tested on: Xenopus laevis Stages 59-60 tadpoles; assay: tadpole assay; assay type: in vivo; settings: 10 μg/ml where stated

C=C(C)C(=O)CC[C@@H](C)[C@H]1CC[C@H]2[C@@H]3[C@H](O)C[C@H]4C[C@@H](NCCCNCCCCN)CC[C@]4(C)[C@H]3CC[C@]12C [Compound 1361, reference compound]
induction of swelling of red blood cells (in words) [1]: induce swelling of red blood cells

COC(=O)CC[C@@H](C)[C@H]1CC[C@H]2[C@@H]3CC[C@H]4C[C@@H](NCCCNCCCCNCCCN)CC[C@]4(C)[C@H]3CC[C@]12C [Compound 459]
potency in the mitogen proliferation assay (in words) [2]: substantial potency | induction of swelling of red blood cells (in words) [1]: induce swelling of red blood cells

CC(CC[C@@H](OS(=O)(=O)O)C(C)C)[C@H]1CCC2C3C(CC[C@@]21C)[C@@]1(C)CC[C@H](NCCCNCCCCNCCCN)C[C@@H]1C[C@H]3O (stereo partly drawn) [drawing 51]
MIC [3]: 1 µg/mL (≈ 1.46 µM) | MIC [4]: 4 µg/mL (≈ 5.84 µM) | MIC [5]: 1 to 2 µg/mL (≈ 1.46 to 2.92 µM) | MIC [6]: 8 µg/mL (≈ 11.7 µM)

COC(=O)CC[C@@H](C)[C@H]1CC[C@H]2[C@@H]3C[C@@H](O)[C@H]4C[C@@H](NCCCNCCCCNCCCN)CC[C@]4(C)[C@H]3CC[C@]12C [Compound 466]
potency in the mitogen proliferation assay (in words) [2]: substantial potency | induction of swelling of red blood cells (in words) [1]: induce swelling of red blood cells

CC(C)CCCC(C)[C@H]1CCC2C3CC[C@H]4C[C@@H](NCCCNCCCCNCCCN)CC[C@]4(C)C3CC[C@@]21C (stereo partly drawn)
minimal effective concentration ([7]; Table II, read-out: Minimum Effective Concentration, HM Cord Formation): 10 µg/mL | minimal effective concentration [8]: 3 µg/mL

CC(CC[C@@H](OS(=O)(=O)O)C(C)C)[C@H]1CCC2C3C(CC[C@@]21C)[C@@]1(C)CC[C@H](NCCCNCCCCNCCCN)C[C@@H]1C[C@H]3O (stereo partly drawn) [drawing 93]
minimal effective concentration [8]: 6.9 µg/mL | minimal effective concentration [9]: 16.7 µg/mL

CC(CCC(=O)O)[C@H]1CCC2C3C(CC[C@@]21C)[C@@]1(C)CC[C@H](NCCCNCCCCNCCCN)C[C@@H]1C[C@H]3O (stereo partly drawn)
MIC [3]: 16 µg/mL (≈ 27.7 µM) | MIC [4]: 16 µg/mL (≈ 27.7 µM) | MIC [5]: 32 to 64 µg/mL (≈ 55.5 to 111 µM) | MIC [6]: 32 µg/mL (≈ 55.5 µM)

CC(C)[C@@H](CC[C@@H](C)[C@H]1CC[C@H]2[C@@H]3[C@H](O)C[C@H]4C[C@@H](NCCCNCCCCN)CC[C@]4(C)[C@H]3CC[C@]12C)OS(=O)(=O)O [drawing 92]
minimal effective concentration [8]: 7.8 µg/mL | minimal effective concentration [9]: 13.2 µg/mL

COC(=O)CC[C@@H](C)[C@H]1CC[C@H]2[C@@H]3CC[C@@H]4C[C@H](NCCCNCCCCNCCCN)CC[C@]4(C)[C@H]3CC[C@]12C [Compound 569]
Rel. potency to MSI-1436, Mitogen Proliferation Assay [2]: 0.50 | potency in the mitogen proliferation assay (in words) [2]: substantial potency | cytotoxicity at 14 µM [10]: 9% | inhibition of HIV relative to compound 1436 (in words) [11]: higher inhibition of HIV than compound 1436 | inhibition at 0.14 µM [11]: 91% | MTT assay IC50 ([8]; Tables III-V): 15 µg/mL | IC50 ([8]; Tables III-V, read-out: MTT assay IC50): 14.5 µg/mL (≈ 25.2 µM) | % Inhib. of MSI-1436 Binding @ 100 μg/mL [12]: 78%

CO[C@@H]1[C@H](OC(=O)/C=C/C=C/C=C/C=C/C(=O)O)CC[C@]2(CO2)[C@H]1[C@@]1(C)O[C@@H]1CC=C(C)C [Fumagillin, reference compound]
minimal effective concentration ([7]; text to the table, read-out: concentration at which cord formation is inhibited): 10 µg/mL

CC(CCC(CO)(OS(=O)(=O)O)C(C)C)[C@H]1CCC2C3C(CC[C@@]21C)[C@@]1(C)CC[C@H](NCCCNCCCCN)C[C@@H]1C[C@H]3O (stereo partly drawn) [drawing 99]
Rel. potency to MSI-1436, Mitogen Proliferation Assay [2]: 1.08 | cytotoxicity at 14 µM [10]: 0% | inhibition at 0.14 µM [11]: -44% | % Inhib. of MSI-1436 Binding @ 100 μg/mL [12]: 14%

COC(=O)CCC(C)[C@H]1CCC2C3C(CC[C@@]21C)[C@@]1(C)CC[C@H](NCCCNCCCCN)C[C@H]1C[C@H]3O (stereo partly drawn)
MIC [3]: 64 µg/mL (≈ 120 µM) | MIC [4]: > 256 µg/mL | MIC [5]: 256 µg/mL (≈ 480 µM) | MIC [6]: 256 µg/mL (≈ 480 µM)

COC(=O)CC[C@@H](C)[C@H]1CC[C@H]2[C@@H]3C[C@@H](O)[C@H]4C[C@@H](NCCCNCCCCN)CC[C@]4(C)[C@H]3CC[C@]12C [Compound 566]
induction of swelling of red blood cells (in words) [1]: induce swelling of red blood cells

CC(CCC(=O)O)[C@H]1CCC2C3C(CC[C@@]21C)[C@@]1(C)CC[C@@H](NCCCNCCCCNCCCN)C[C@H]1C[C@H]3O (stereo partly drawn)
MIC [3]: 64 µg/mL (≈ 111 µM) | MIC [5]: 8 µg/mL (≈ 13.9 µM)

COC(=O)CC[C@@H](C)[C@H]1CC[C@H]2[C@@H]3[C@H](O)C[C@@H]4C[C@@H](NCCCNCCCCNCCCN)CC[C@]4(C)[C@H]3CC[C@]12C [Compound 411]
inhibition of angiogenesis (in words) [7]: inhibit angiogenesis at higher doses | Chick embryo vitelline capillary regression ([13]; 1 μg applied, 60 minutes): +/-

COC(=O)CCC(C)[C@H]1CCC2C3C(CC[C@@]21C)[C@@]1(C)CC[C@@H](NCCCNCCCCN)C[C@H]1C[C@H]3O (stereo partly drawn) [drawing 38]
MIC [3]: 4 µg/mL (≈ 7.49 µM) | MIC [4]: 64 µg/mL (≈ 120 µM) | MIC [5]: 32 to 64 µg/mL (≈ 59.9 to 120 µM) | MIC [6]: 64 µg/mL (≈ 120 µM)

COC(=O)CCC(C)[C@H]1CCC2C3C(CC[C@@]21C)[C@@]1(C)CC[C@@H](NCCN)C[C@H]1C[C@H]3O (stereo partly drawn) [drawing 40]
MIC [4]: 32 µg/mL (≈ 71.3 µM)

CC(CCC(CO)(OS(=O)(=O)O)C(C)C)[C@H]1CCC2C3C(CC[C@@]21C)[C@@]1(C)CC[C@H](NCCCNCCCCN)C[C@@H]1C[C@H]3O (stereo partly drawn) [drawing 52]
MIC [3]: 2 µg/mL (≈ 3.04 µM) | MIC [4]: 16 µg/mL (≈ 24.3 µM) | MIC [5]: 4 µg/mL (≈ 6.08 µM) | MIC [6]: 16 µg/mL (≈ 24.3 µM)

CC(CCC(=O)O)[C@H]1CCC2C3C(CC[C@@]21C)[C@@]1(C)CC[C@H](NCCCNCCCCNCCCN)C[C@H]1C[C@H]3O (stereo partly drawn) [drawing 43]
MIC [4]: 64 µg/mL (≈ 111 µM)

COC(=O)CC[C@@H](C)[C@H]1CC[C@H]2[C@@H]3[C@H](O)C[C@@H]4C[C@H](NCCN)CC[C@]4(C)[C@H]3CC[C@]12C [Compound 410]
inhibition of angiogenesis (in words) [7]: inhibit angiogenesis at higher doses | effect on vitelline capillaries (in words) ([13]; 3- to 5-day chick embryo): substantial activity | effect on embryonic epithelium / epithelial shedding (in words) [14]: functionally similar to compound 1437
